Experimental findings from ChEMBL document CHEMBL1201862, “PubChem BioAssay data set” (2004) are described below.

Experiment [1] can be described thus: PAX2 cell-based inhibition, dose response, selectivity assay for PAX8 inhibitor project, plate reader, dry powder samples (AID 743048).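 Also: HEK293 cells carrying a WT1 promoter luciferase reporter driven by expressed Pax2; potency is for inhibition of Pax2 driven reporter signal.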 It counts as functional.
The nature of experiment [2]: PAX5 activity inhibitors, dose response, selectivity assay for PAX8 inhibitor project, cell-based, plate reader, dry powder samples (AID 743047).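 Also: HEK293 cells carrying a Pax5 driven CD19 promoter luciferase reporter; potency of inhibitors that lower reporter luminescence.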 Type of experiment: functional.
Experiment [3] is described as follows: cytotoxicity in OV-90 ovarian cancer cells, dose response, PAX8 inhibitor project, cell-based, plate reader, dry powder, SA8 (AID 743149). It counts as functional.
The test system of a further experiment is HeLa. In words: HeLa cell cytotoxicity, dose response, cytotoxicity control, 24 h, cherry-picked samples (AID 504726).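 Also: potency for cytotoxicity as loss of luminescence signal.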 It counts as functional, cell-based. The settings on record: Homo sapiens.
A further experiment concerns the target ORF 73 (Human herpesvirus 8, UniProt O40947). In words: inhibitors of C-LANA binding to LBS DNA, dose response, biochemical, fluorescence polarization, cherry-picked samples (AID 504725).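 Also: fluorescence polarization of a labeled DNA duplex reporting LANA DNA binding; potency is for inhibitors that block LANA binding to the DNA.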 The arrangement: species or system Human gammaherpesvirus 8. Background: Polarisation of emitted light reports the rotation of a fluorescent probe.
Experiment [4] addresses Dual specificity tyrosine-phosphorylation-regulated kinase 1A (Rattus norvegicus, UniProt Q63470). It counts as biochemical, Homo sapiens.
Experiment [5] can be described thus: HeLa cell cytotoxicity, dose response, cytotoxicity control for MgcRacGAP inhibitor project (AID 624300). It counts as functional.
In experiment [6] the target is T1, Rac GTPase-activating protein 1 (Homo sapiens, UniProt Q9H0H5).
T1 sequence (Q9H0H5 whole entry): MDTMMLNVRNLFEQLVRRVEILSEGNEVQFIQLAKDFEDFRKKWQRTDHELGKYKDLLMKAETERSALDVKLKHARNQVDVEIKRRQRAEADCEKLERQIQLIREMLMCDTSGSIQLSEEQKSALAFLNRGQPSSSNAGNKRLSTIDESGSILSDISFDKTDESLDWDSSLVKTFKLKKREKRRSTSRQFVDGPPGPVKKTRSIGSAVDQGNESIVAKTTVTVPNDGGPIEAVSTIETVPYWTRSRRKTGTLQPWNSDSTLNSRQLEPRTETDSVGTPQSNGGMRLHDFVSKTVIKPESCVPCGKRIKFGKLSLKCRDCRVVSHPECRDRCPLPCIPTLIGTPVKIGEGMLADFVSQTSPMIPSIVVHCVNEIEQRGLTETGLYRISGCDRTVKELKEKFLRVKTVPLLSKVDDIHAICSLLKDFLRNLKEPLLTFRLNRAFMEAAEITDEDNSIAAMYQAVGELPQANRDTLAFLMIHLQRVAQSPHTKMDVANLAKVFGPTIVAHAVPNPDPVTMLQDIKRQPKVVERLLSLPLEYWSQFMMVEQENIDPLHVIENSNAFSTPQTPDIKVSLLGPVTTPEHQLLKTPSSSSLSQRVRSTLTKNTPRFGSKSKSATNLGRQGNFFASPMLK
In words: MgcRacGAP GTPase-activating activity inhibitors, confirmation, biochemical, ADP Hunter fluorescence, primary and confirmatory (AID 624330). It counts as functional.

For experiment [7], the target named is SWI/SNF-related matrix-associated actin-dependent regulator of chromatin subfamily A member 2 (Homo sapiens, UniProt P51531). In words: Luminescence-based cell-based high throughput dose response assay to identify activators of the function of SWI/SNF related, matrix associated, actin dependent regulator of chromatin, subfamily a, member 2 (SMARCA2, BRM). It counts as functional.

A short description of experiment [8]: Counterscreen for activators of the function of SWI/SNF related, matrix associated, actin dependent regulator of chromatin, subfamily a, member 2 (SMARCA2, BRM): Luminescence-based cell-based high throughput dose response assay to identify non-selective compounds using the VP16 reporter assay. Type of experiment: functional.
The target in experiment [9] is T2, Histone-lysine N-methyltransferase NSD2 (Homo sapiens, UniProt O96028).
T2 sequence (O96028 whole entry): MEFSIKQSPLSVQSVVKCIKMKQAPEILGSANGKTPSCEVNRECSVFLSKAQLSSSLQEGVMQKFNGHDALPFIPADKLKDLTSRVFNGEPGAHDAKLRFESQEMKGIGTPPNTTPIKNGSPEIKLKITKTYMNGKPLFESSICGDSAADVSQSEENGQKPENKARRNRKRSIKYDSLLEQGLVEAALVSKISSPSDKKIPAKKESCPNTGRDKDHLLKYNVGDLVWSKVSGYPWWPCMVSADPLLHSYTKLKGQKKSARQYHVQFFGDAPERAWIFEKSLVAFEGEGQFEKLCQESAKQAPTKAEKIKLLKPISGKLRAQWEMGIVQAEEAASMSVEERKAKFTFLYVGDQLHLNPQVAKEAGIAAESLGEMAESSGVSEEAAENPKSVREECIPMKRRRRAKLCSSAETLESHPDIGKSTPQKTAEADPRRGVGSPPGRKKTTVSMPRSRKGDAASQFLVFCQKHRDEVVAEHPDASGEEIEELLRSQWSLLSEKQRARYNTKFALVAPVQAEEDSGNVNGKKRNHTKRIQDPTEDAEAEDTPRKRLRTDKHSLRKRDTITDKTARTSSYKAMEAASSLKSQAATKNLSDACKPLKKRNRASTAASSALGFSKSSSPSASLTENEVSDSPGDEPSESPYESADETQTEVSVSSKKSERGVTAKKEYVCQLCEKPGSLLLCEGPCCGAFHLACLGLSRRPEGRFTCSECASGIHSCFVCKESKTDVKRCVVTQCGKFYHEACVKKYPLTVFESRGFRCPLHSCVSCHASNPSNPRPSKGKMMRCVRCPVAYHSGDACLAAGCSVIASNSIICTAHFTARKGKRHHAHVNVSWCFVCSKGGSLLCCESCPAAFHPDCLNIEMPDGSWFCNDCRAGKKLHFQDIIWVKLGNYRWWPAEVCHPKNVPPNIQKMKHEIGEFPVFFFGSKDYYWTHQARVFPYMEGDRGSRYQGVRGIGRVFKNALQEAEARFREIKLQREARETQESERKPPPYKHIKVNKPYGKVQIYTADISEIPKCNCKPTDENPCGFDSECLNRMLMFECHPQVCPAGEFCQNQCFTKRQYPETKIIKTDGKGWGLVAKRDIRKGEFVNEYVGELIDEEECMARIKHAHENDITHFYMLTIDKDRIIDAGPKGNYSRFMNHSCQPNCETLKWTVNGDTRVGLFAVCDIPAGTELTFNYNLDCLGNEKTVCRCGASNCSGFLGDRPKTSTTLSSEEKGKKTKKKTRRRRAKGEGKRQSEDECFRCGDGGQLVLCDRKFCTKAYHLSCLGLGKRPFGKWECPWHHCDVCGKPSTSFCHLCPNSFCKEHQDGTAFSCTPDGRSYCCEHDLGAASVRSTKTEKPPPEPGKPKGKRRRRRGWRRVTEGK
Type of experiment: biochemical.

In experiment [10] the target is Tyrosyl-DNA phosphodiesterase 2 (Homo sapiens, UniProt O95551). Description: human TDP2 enzyme inhibitors, dose response, biochemical, epi absorbance, IC50 (AID 743297).
Experiment [11] addresses Protein disulfide-isomerase (Homo sapiens, UniProt P07237). Description: PDI inhibitors, insulin turbidity readout, confirmation, biochemical, dry powder samples, set 2 (AID 652146).
The nature of experiment [12]: HEp-2 cell cytotoxicity, dose response, cytotoxicity control for RSV inhibitor project, HTS (AID 2410). It counts as functional. The settings on record: human respiratory syncytial virus.
The test system of experiment [13] is Streptococcus sp. 'group A'. In words: growth inhibition of control SK(-) GAS strain, dose response, counter-screen for streptokinase expression inhibitor project, luminescence, kanamycin, BacTiterGlo, confirmation (AID 1900). It counts as functional, organism-based. (A counterscreen serves to expose hits that act by an unwanted route or on another target.)
The next experiment deals with T3, Streptokinase A (Streptococcus pyogenes serotype M1, UniProt P10520).
T3 sequence (P10520 whole entry): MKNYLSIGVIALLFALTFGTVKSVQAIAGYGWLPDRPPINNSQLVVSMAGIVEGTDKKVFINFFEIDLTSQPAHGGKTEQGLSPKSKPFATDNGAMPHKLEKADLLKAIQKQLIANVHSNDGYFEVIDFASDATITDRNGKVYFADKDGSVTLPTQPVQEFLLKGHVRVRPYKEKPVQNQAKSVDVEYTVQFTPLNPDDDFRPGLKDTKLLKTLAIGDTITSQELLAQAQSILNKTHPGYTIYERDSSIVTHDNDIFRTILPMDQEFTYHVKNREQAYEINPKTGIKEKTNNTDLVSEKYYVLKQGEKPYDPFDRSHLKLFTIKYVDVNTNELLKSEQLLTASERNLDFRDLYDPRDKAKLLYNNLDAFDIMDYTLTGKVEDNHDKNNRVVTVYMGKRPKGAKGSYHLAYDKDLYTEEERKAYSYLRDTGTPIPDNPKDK
Description: S. pyogenes streptokinase expression inhibitors, potency, dose response, plasminogen activation absorbance, OD405 (AID 1914).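 Also: secreted streptokinase activity via plasminogen activation per viability signal from cell pellet.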 It counts as functional, Streptococcus pyogenes M1 GAS.

In experiment [14] the target is T4, Calpain-2 catalytic subunit (Sus scrofa, UniProt P43367).
T4 sequence (P43367 whole entry): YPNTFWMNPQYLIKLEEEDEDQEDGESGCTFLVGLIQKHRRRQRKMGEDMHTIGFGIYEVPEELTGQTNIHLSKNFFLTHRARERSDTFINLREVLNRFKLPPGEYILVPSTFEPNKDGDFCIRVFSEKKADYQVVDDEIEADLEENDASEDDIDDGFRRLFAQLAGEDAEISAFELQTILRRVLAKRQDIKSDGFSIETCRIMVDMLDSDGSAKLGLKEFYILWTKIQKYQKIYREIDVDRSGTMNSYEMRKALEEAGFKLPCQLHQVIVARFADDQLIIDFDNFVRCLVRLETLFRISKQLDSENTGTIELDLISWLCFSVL
In words: pig calpain II inhibitor potency, dose response, biochemical, fluorogenic peptide substrate (AID 1420). It counts as functional.

The next experiment relates to Streptococcus. In words: Group A Streptococcus viability loss, dose response, counter-screen for streptokinase expression inhibitor project, luminescence, BacTiterGlo (AID 1915).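 Also: potency for reduction of bacterial viability or growth.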 It counts as functional, organism-based.
A further experiment has as its target Major prion protein (Homo sapiens, UniProt P04156). It counts as functional, cell-based.

Activity calls are given as the source filed them. Where only a bound is given, the exact number is not on record here.

For `COc1cccc(C#Cc2ccc([C@@H]3[C@@H](C#N)N(C(=O)C4CCCC4)[C@@H]3CO)cc2)c1`, the AC50 (usually the concentration at which the activity in the assay is half-maximal) in [1] was 31.6 µM (active); in experiment [2] it was 30.7 µM (active); in experiment [3] it was > 70 µM (inactive).

As for `CCN(CC)CCCNc1ccc2ncn3c4ccc(O)cc4c(=O)c1c23`, the AC50 was > 350 µM (inactive) in the experiment with HeLa, 2.05 µM (active) at ORF 73, 2.77 µM (active) in experiment [4] and 12.7 µM (active) in experiment [9]. Moreover, the half-maximal cytotoxic concentration (CC50) (in general, the concentration at which the toxic effect on the cells reaches its halfway point) in experiment [5] was 89.3 µM (active). The IC50 (usually the concentration that inhibits the measured activity by half) in [6] is 56.4 µM (active); in experiment [10], > 128 µM (inactive). Also, the EC50 – broadly, the concentration at which the effect is half-maximal – in experiment [7] was 20.5 µM (inactive); in experiment [8], > 91.2 µM (inactive).

For `C=CCOc1ccc(CN2CCC(CCOc3ccccc3)(C(=O)O)CC2)cc1Cl`, in experiment [11], the half-maximal activity concentration (AC50) was 20 µM (active).

Turning to `Cc1nc(-c2ccc(S(=O)(=O)Nc3ccc(Br)cc3Cl)s2)cs1`, the CC50 in [12] is 16.6 µM (active). Moreover, the EC50 in [13] is 3.04 µM (active); on Streptokinase A, 3.98 µM (active); in the experiment on Streptococcus, 11.9 µM (active). Besides, the results for the half-inhibitory concentration (IC50) (in [14]; on Major prion protein; in “cells”) were 12.2 µM (active), 12.5 µM (inactive) and > 138 µM (inactive), respectively.
